Data reported in US20220105058A1, “USE OF 3-O-SULFAMATE-16,16-DIMETHYL-D-HOMOEQUILENIN TO TREAT ONCOLOGICAL DISEASES” (priority 2018, published 2022).
Values joined by “and” are separate entries in the source; they are usually repeats but may differ in a detail not shown here. Identical values can stand only once. Like-named read-outs stand apart in the source and are kept apart here. Marks after values point to notes of the source that are not given here.

What was measured:
[1] = tested on: subcutaneous xenografts of human TNBC-Kad breast cancer
Experimental: (§1) A comparative study of the medicaments in vivo was performed in female Balb/c nude mice with subcutaneously (s.c.) transplanted tumor cells. The experiment lasted for 29 days after the medicament administration for the first time (the administration of the medicaments was started on Day 5 after the tumor strain transplantation).
(§2) The medicament and the reference drug were administered intragastrically multiple times at doses of 30 mg/kg and 10 mg/kg daily for 21 days.
(§3) The placebo group was given 1% starch solution intragastrically in equivalent volumes and in the same regime. Tumor nodes were measured 2 times per week. […] Once the treatment was completed, the last tumor measurement was carried out, and animals were weighed and euthanized.
(§4) The animals were weighed on the first day of the experiment, and then 2 times per week throughout the experiment according to the research protocol.
(§5) A tumor node was measured after tumor transplantation 2 times per week throughout the experiment. The tumor node volume was determined by the formula:
(§6) V=π/6*L*W*H, where L, W, H are the linear size dimensions of the tumor.
(§7) Determination of Antitumor Activity
(§8) Tumor growth inhibition index (TGI) was used as a criterion for the study of the medicament efficacy and calculated by the formula as follows:
(§9) TGI (%)=|Vctrl−Vexp|/Vctrl*100
(§10) where Vctrl and Vexp are the average tumor volume (mm^3) in the control and in the experimental groups, respectively.
(§11) After the course of the treatment, the animals were euthanized by the cervical dislocation of cervical vertebrae.
(§12) The statistical data processing was conducted using SPSS 21 package (license No. 20130626-3). Descriptive statistics in the study includes the following: arithmetic average, standard deviation (SD), standard mean error (SE), median, quartiles, interquartile range. To compare quantitative characteristics in the groups, the Mann-Whitney-Wilcoxon test was used without corrections for multiple comparisons. The results were considered statistically significant at p<0.05.

[2] = tested on: subcutaneous xenografts of human SKBR-3 breast cancer
Experimental: as §1, §2, §3, §4, §5, §6, §7, §8, §9, §10, §11, §12

[3] = tested on: Breast tumors (BT) in female FBV/N mice transgenic for HER-2/neu; experiment: antitumor activity in mice with HER-2/neu breast tumors; type: in vivo, FVB mice transgenic for HER-2/neu; details: medicament 20 mg/kg
Description: The age of animals at the beginning of the study was 21-41 weeks and weight was 25-30 g.
The control groups were given the olive oil (placebo).
TGI=(Vctrl−Vexp)/Vctrl×100(%),

[4] = pilot experiment, medicament 10 mg/kg, Day 10

CC1(C)CC(=O)[C@@]2(C)CCc3c(ccc4cc(OS(N)(=O)=O)ccc34)[C@@H]2C1 [medicament, 3-O-sulfamate-16,16-dimethyl-D-homoequilenin]
number of dead mice before the end of the observation period ([1]; medicament 10 mg/kg): 10 out of 10
average tumor volume (M ± m) ([1]; medicament 10 mg/kg, Day 3): 5.65 ± 1.64 mm^3
TNBC_Kad growth inhibition, TGI ([1]; medicament 10 mg/kg, Day 7): 66.1%
average tumor volume (M ± m) ([1]; medicament 10 mg/kg, Day 7): 27.0±5.1 mm^3 and 26.98 ± 5.12 mm^3
TNBC_Kad growth inhibition, TGI ([1]; medicament 10 mg/kg, Day 10): 78.7%
average tumor volume (M ± m) ([1]; medicament 10 mg/kg, Day 10): 21.6±4.9 mm^3 and 21.59 ± 4.88 mm^3
TNBC_Kad growth inhibition, TGI ([1]; medicament 10 mg/kg, Day 14): 83.1%
average tumor volume (M ± m) ([1]; medicament 10 mg/kg, Day 14): 27.6±2.6 mm^3 and 27.59 ± 2.57 mm^3
TNBC_Kad growth inhibition, TGI ([1]; medicament 10 mg/kg, Day 17): 76.1%
average tumor volume (M ± m) ([1]; medicament 10 mg/kg, Day 17): 46.3±5.3 mm^3 and 46.25 ± 5.31 mm^3
average tumor volume (M ± m) ([1]; medicament i.g. 10 mg/kg, Day 0 of treatment): 1.6±0.4 mm^3 and 1.57 ± 0.35 mm^3
efficacy compared with tamoxifen and letrozole ([1]; xenograft human tumor of triple negative breast cancer): more effective than tamoxifen and aromatase inhibitor letrozole
number of dead mice before the end of the observation period ([2]; medicament 10 mg/kg): 5 out of 7
average tumor volume (M ± m) ([2]; medicament 10 mg/kg i.g. daily, Day 0 of treatment): 1.0±0.4 mm^3
average tumor volume (M ± m) ([2]; medicament 10 mg/kg i.g. daily, Day 0 of treatment, listed as Steroid): 1.0 ± 0.4 mm^3
average tumor volume (M ± m) ([2]; medicament 10 mg/kg, Day 3): 1.2 ± 0.4 mm^3
SKBR-3 growth inhibition, TGI ([2]; medicament 10 mg/kg, Day 7): 74.3%
average tumor volume (M ± m) ([2]; medicament 10 mg/kg, Day 7): 5.1±2.3 mm^3
average tumor volume (M ± m) ([2]; medicament 10 mg/kg, Day 7, listed as Steroid): 5.1 ± 2.3 mm^3
SKBR-3 growth inhibition, TGI ([2]; medicament 10 mg/kg, Day 10): 68.0%
average tumor volume (M ± m) ([2]; medicament 10 mg/kg, Day 10): 24.8±12.2 mm^3
average tumor volume (M ± m) ([2]; medicament 10 mg/kg, Day 10, listed as Steroid): 24.8 ± 12.2 mm^3
SKBR-3 growth inhibition, TGI ([2]; medicament 10 mg/kg, Day 14): 94.3%
average tumor volume (M ± m) ([2]; medicament 10 mg/kg, Day 14): 6.9±2.2 mm^3
average tumor volume (M ± m) ([2]; medicament 10 mg/kg, Day 14, listed as Steroid): 6.9 ± 2.2 mm^3
SKBR-3 growth inhibition, TGI ([2]; medicament 10 mg/kg, Day 17): 90.6%
average tumor volume (M ± m) ([2]; medicament 10 mg/kg, Day 17): 17.6±0.7 mm^3
average tumor volume (M ± m) ([2]; medicament 10 mg/kg, Day 17, listed as Steroid): 17.6 ± 0.7 mm^3
SKBR-3 growth inhibition, TGI ([2]; medicament 10 mg/kg, Day 21): 90.2%
average tumor volume (M ± m) ([2]; medicament 10 mg/kg, Day 21): 26.1±12.1 mm^3
average tumor volume (M ± m) ([2]; medicament 10 mg/kg, Day 21, listed as Steroid): 26.2 ± 12.1 mm^3
SKBR-3 growth inhibition, TGI ([2]; medicament 10 mg/kg, Day 24): 86.3%
average tumor volume (M ± m) ([2]; medicament 10 mg/kg, Day 24): 32.0 ± 6.9 mm^3
average tumor volume (Vaverage) [2, 4]: 2.2±2.0 mm^3
maximum TGI [2, 4]: 91.2%
Average volume of new tumors at the end of observation period (M) [3]: 0.15 cm^3
average total volume of tumors, % changes from baseline ([3]; 28 days): 106%
average volume of tumors, % changes from baseline ([3]; 28 days): 103%
TGI (average total tumor volume) ([3]; Day 0): 25%
TGI (average tumor volume) ([3]; Day 0): 8%
average total volume of tumors in mice (M) ([3]; Day 0): 1.69 cm^3
average volume of tumors (M) ([3]; Day 0): 0.35 cm^3
relative change of the average total volume to that of Day − 1 (M) ([3]; Day 0): 0%
TGI (average total tumor volume) ([3]; Day 7): 36%
TGI (average tumor volume) ([3]; Day 7): 22%
average total volume of tumors in mice (M) ([3]; Day 7): 1.93 cm^3
average volume of tumors (M) ([3]; Day 7): 0.39 cm^3
relative change of the average total volume to that of Day − 1 (M) ([3]; Day 7): 19%
TGI (average total tumor volume) ([3]; Day 14): 36%
TGI (average tumor volume) ([3]; Day 14): 21%
average total volume of tumors in mice (M) ([3]; Day 14): 2.67* cm^3
average volume of tumors (M) ([3]; Day 14): 0.55 cm^3
relative change of the average total volume to that of Day − 1 (M) ([3]; Day 14): 64^a %
